Test results from US20090018215A1, “Fumigant for wood parasitic nematodes and wood fumigation method” (priority 2004, published 2009).
Where two headings read alike, the source gives them in different places.

Test system: Bursaphelenchus xylophilus
Format: in vivo
Conditions: 24 hours

O=S(=O)(F)F [sulfuryl fluoride]
effect of killing nematodes (control area: sulfuryl fluoride alone, 50 g/m^3, 15° C.): 89%

CI [methyl iodide]
effect of killing nematodes (control area: methyl iodide as is, injected through injection syringe, 96 g/m^3, 10° C.): 98%
